The target of this test is T1, Angiotensin II Receptor (Bos taurus, UniProt P25104).
T1 construct: The brownish tissue forming the adrenal cortex is scraped off and finely minced with scissors before homogenization; from tissue; host or cells: beef adrenal cortex, microsomal membranes (100,000×g pellet)
T1 sequence (P25104 1-359): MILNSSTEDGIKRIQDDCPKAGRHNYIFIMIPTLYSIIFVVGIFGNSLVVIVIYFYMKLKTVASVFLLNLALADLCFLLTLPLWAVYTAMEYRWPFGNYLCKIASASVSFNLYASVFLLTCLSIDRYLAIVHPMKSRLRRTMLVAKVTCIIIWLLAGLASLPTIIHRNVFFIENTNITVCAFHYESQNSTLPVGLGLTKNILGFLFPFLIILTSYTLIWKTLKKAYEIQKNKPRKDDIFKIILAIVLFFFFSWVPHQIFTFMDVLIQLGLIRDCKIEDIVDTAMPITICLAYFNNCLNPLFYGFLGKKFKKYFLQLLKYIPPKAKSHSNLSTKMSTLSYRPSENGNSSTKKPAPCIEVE
Description: Angiotensin II Receptor Binding: displacement of [^125 I](Sar^1,Ile^8)AngII from beef adrenal cortex membranes. Details: species or system beef (bovine). The note with it: radioligand; non-specific binding with 1.0 uM unlabeled (Sar^1,Ile^8)AngII. An excerpt:
Beef adrenals are obtained from a local slaughter house (Maxwell-Cohen). [^125 I](Sar^1,Ile^8)AngII, S.A. 2200 Ci/mmole, is purchased from Dupont (NEN®, Boston, Mass.). All unlabeled AngII analogs, Dimethylsulfoxide (DMSO), nucleotides, bovine serum albumin (BSA) are purchased from Sigma Chemical Co., St. Louis, Mo. U.S.A.
Approximately sixteen (16) to twenty (20) beef adrenal glands are processed as follows: fresh adrenal glands received on crushed ice are cleaned of fatty tissues and the tough membranes encapsulating the glands are removed and discarded. The brownish tissue forming the adrenal cortex is scraped off and finely minced with scissors before homogenization. Care is taken to avoid contamination with medullary tissue during dissection. The scraped cortices are suspended in twenty volumes of an ice-cold buffer medium consisting of 10 mM Tris.HCl (pH 7.4 at 22° C.) and containing 1.0 mM EDTA and 0.2M sucrose. Unless otherwise indicated, all subsequent operations are done at 4° C. […] The homogenate is centrifuged first at low speed (3,000×g) for 10 min. […] This P2 pellet is discarded and the liquid phase is carefully decanted off in clean centrifuge tubes and recentrifuged at high speed (100,000×g) for 60 min. The translucent final pellet is harvested and combined in a small volume (20-50.0 ml) of 50.0 mM Tris.HCl buffer, pH 7.2. […] The pelleted membrane is reconstituted in 50.0 mM Tris.HCl buffer containing 0.1 mM of phenylmethylsulfonyl fluoride (PMSF) to give approximately a protein concentration of 2.5 mg per ml of tissue suspension. The membrane preparation is finally aliquoted in 1.0 ml volumes and stored at -70° C. until use in the binding assays. […]
The wells are left undisturbed for 60 min. at room temperature. […] The filters are removed from the filter grid and counted in a Parkard® Cobra Gamma Counter for 1 min. […] The binding data are analyzed by the non-linear interactive "LUNDON-1" program (LUNDON SOFTWARE Inc., Cleveland, Ohio U.S.A.).

Take “[^125 I](Sar^1,Ile^8)AngII [reference compound]”: the Specific binding entry was “greater than 90%”.

The values are drawn from US5281603A, “Angiotensin II receptor blocking 2,3,6 substituted quinazolinones” (American Cyanamid Company, priority 1993, dated 1994).
